Measurements: ChEMBL document CHEMBL5131467, “Multivalent peptide dendrimers inhibit the fusion of viral-cellular membranes and the cellular NF-κB signaling pathway” (Eur J Med Chem, 2022)
Activity calls are given as the source filed them. No cut-off for these calls is given here. Where a SMILES comes first, the peptide text is derived from it. Bridges are numbered along the chain shown (N, C = ends). Roman numbers before positions name the chains, in order. Side-chain parts run from the residue outwards. The star is where a group is joined. Fmoc = O=C(OCC1c2ccccc2-c2ccccc21)*

Key:
Mus musculus [1] = test: Antiviral activity against Kunming mouse infected with Influenza A virus (A/Puerto Rico/8/1934(H1N1)) assessed as survival rate at 5 mg/kg, ip administered once a day for 5 days relative to control; format: functional; details: 120 h, time 5 day
[2] = AUC in Kunming mouse at 10 mg/kg, ip by HPLC analysis; format: ADME, organism-based; set-up: dose 10 mg/kg, route ip; details: in vivo
Influenza A virus [3] = test: Antiviral activity against Influenza A virus (A/Puerto Rico/8/1934(H1N1)) infected in MDCK cells assessed as reduction in virus induced cytopathic effect pre-treated with virus followed by cell infection for 1 hr by MTT assay; format: functional, organism-based
Influenza A virus [4] = test: Antiviral activity against Influenza A virus (A/Puerto Rico/8/1934(H1N1)) infected in MDCK cells assessed as reduction in virus induced cytopathic effect during infection incubated for 1 hr by MTT assay; format: functional, organism-based
Influenza A virus [5] = test: Antiviral activity against Influenza A virus (A/Puerto Rico/8/1934(H1N1)) infected in MDCK cells assessed as reduction in virus induced cytopathic effect after infection incubated for 1 hr by MTT assay; format: functional, organism-based
[6] = Cytotoxicity against MDCK cells incubated for 1 hr by MTT assay; format: toxicity, cell-based, Canis lupus familiaris; details: dog
[7] = Selectivity index, ratio of CC50 for MDCK cells to IC50 antiviral activity against Influenza A virus (A/Puerto Rico/8/1934(H1N1)) infected in MDCK cells assessed as reduction in virus induced cytopathic effect pre-treated with virus; format: toxicity, cell-based; details: dog, read-out: Selectivity Index
Influenza A virus [8] = test: Antiviral activity against Influenza A virus (A/Puerto Rico/8/1934(H1N1)) infected in MDCK cells assessed as reduction in M1 mRNA level at 1 ug/ml measured after 24 hrs post infection by qRT-PCR analysis; format: functional, organism-based; details: dose 1.0 µg/ml
Influenza A virus [9] = test: Antiviral activity against Influenza A virus A/Aichi/2/68(H3N2) infected in MDCK cells incubated for 1 hr by MTT assay; format: functional, organism-based
Influenza A virus [10] = test: Antiviral activity against Influenza A virus 699(H3) clinical isolate infected in MDCK cells incubated for 1 hr by MTT assay; format: functional, organism-based
Influenza B virus = test: Antiviral activity against Influenza B virus 699[…] clinical isolate infected in MDCK cells incubated for 1 hr by MTT assay; format: functional, organism-based
Influenza A virus [11] = test: Antiviral activity against Influenza A virus (A/Puerto Rico/8/1934(H1N1)) infected in MDCK cells after treatment incubated for 1 hr by MTT assay; format: functional, organism-based
Influenza A virus [12] = test: Antiviral activity against Influenza A virus (A/Puerto Rico/8/1934(H1N1)) infected in MDCK cells assessed as reduction in viral nucleoprotein expression level at 2 ug/ml pre-treated with virus measured after 24 hrs post infection by indirect immunofluorescence assay; format: functional, organism-based; details: dose 2.0 µg/ml
Influenza A virus [13] = test: Antiviral activity against Influenza A virus (A/Puerto Rico/8/1934(H1N1)) infected in MDCK cells assessed as reduction in viral nucleoprotein expression level at 2 ug/ml pretreated with compound measured after 24 hrs post infection by indirect immunofluorescence assay; format: functional, organism-based; details: dose 2.0 µg/ml
Influenza A virus [14] = test: Antiviral activity against Influenza A virus (A/Puerto Rico/8/1934(H1N1)) infected in MDCK cells assessed as reduction in viral nucleoprotein expression level at 2 ug/ml during infection measured after 24 hrs post infection by indirect immunofluorescence assay; format: functional, organism-based; details: dose 2.0 µg/ml
RAW264.7 [15] = test: Cytotoxicity against mouse RAW264.7 cells assessed as cell viability at lesser than 100 ug/ml by CCK-8 assay; format: toxicity, cell-based; details: dose < 100 µg/ml
RAW264.7 [16] = test: Anti-inflammatory activity against mouse RAW264.7 cells assessed as reduction in LPS induced IL-6 level at 1 ug/ml by qRT-PCR analysis; format: functional, cell-based; details: dose 1.0 µg/ml
RAW264.7 [17] = test: Anti-inflammatory activity against mouse RAW264.7 cells assessed as reduction in influenza A virus induced IL-1 beta level at 1 ug/ml by qRT- PCR; format: functional, cell-based; details: dose 1.0 µg/ml
RAW264.7 [18] = test: Anti-inflammatory activity against mouse RAW264.7 cells assessed as reduction in LPS induced TNF alpha level at 1 ug/ml by ELISA method; format: functional; details: dose 1 µg/ml
RAW264.7 [19] = test: Anti-inflammatory activity against mouse RAW264.7 cells assessed as reduction in LPS induced TNF alpha level at 5 ug/ml by ELISA method; format: functional; details: dose 5 µg/ml
RAW264.7 [20] = test: Anti-inflammatory activity against LPS induced mouse RAW264.7 cells assessed as suppression of NF kappa B expression level at 1.5 ug/ml by luciferase reporter assay; format: functional, cell-based; details: dose 1.5 µg/ml
[21] = Tmax in Kunming mouse at 10 mg/kg, ip by HPLC analysis; format: ADME, organism-based; details: in vivo
[22] = Half life in Kunming mouse at 10 mg/kg, ip by HPLC analysis; format: ADME, organism-based; details: in vivo
Mus musculus [23] = test: Antiviral activity against Kunming mouse infected with Influenza A virus (A/Puerto Rico/8/1934(H1N1)) assessed as increase in body weight at 5 mg/kg, ip measured after 15 days (reference value: 178.7%); format: functional; details: time 15 day
Mus musculus [24] = test: Antiviral activity against Kunming mouse infected with Influenza A virus (A/Puerto Rico/8/1934(H1N1)) assessed as survival rate at 5 mg/kg, ip administered twice a day with a time interval of 12 hrs for 4 days relative to control; format: functional; details: 96 h, time 4 day
Mus musculus [25] = test: Antiviral activity against Kunming mouse infected with Influenza A virus (A/Puerto Rico/8/1934(H1N1)) assessed as survival rate at 1.25 mg/kg, ip administered twice a day with a time interval of 12 hrs for 4 days relative to control; format: functional; details: 96 h, time 4 day
Mus musculus [26] = test: Antiviral activity against Kunming mouse infected with Influenza A virus (A/Puerto Rico/8/1934(H1N1)) assessed as recovery in body weight at 1.25 mg/kg, ip administered twice a day with a time interval of 12 hrs for 4 days measured from day 8 upto 15 days (reference value: 17.58 g); format: functional; details: time 15 day
Mus musculus [27] = test: Antiviral activity against Kunming mouse infected with Influenza A virus (A/Puerto Rico/8/1934(H1N1)) assessed as reduction in viral titer in lung homogenate at 1.25 mg/kg, ip administered twice a day for 3 days after 24 hrs of viral infection; format: functional, organism-based; details: time 3.0 day
Mus musculus [28] = test: Antiviral activity against Kunming mouse infected with Influenza A virus (A/Puerto Rico/8/1934(H1N1)) assessed as reduction in viral titer in lung homogenate at 5 mg/kg, ip administered twice a day for 3 days after 24 hrs of viral infection; format: functional, organism-based; details: time 3.0 day
Erythrocyte = test: Hemolytic activity in chicken erythrocytes at up to 50 uM pre-treated with virus for 30 mins followed by addition of cell measured after 30 mins by microplate reader assay; format: toxicity, cell-based, Gallus gallus; details: 0.5 h
Influenza A virus [29] = test: Antiviral activity against Influenza A Puerto Rico/8/1934/H1N1 infected in human A549 cells assessed as inhibition of viral replication after 24 hrs by hemagglutination assay; format: functional, organism-based
Influenza A virus [30] = test: Antiviral activity against influenza A/Thailand/Kan353/2004 infected in MDCK cells assessed as inhibition of syncytium formation at 2.5 ug/ml incubated for 3 hrs by giemsa staining based assay relative to control; format: functional; set-up: scale not given: the % may be the effect or the level left; details: dose 2.5 µg/ml
Hemagglutinin = Hemagglutinin (Influenza A virus, UniProt B4URE7); test: Binding affinity to Influenza A Puerto Rico/8/1934/H1N1 hemagglutin assessed as dissociation constant by surface plasmon resonance assay
Chain of Hemagglutinin (B4URE7 whole entry): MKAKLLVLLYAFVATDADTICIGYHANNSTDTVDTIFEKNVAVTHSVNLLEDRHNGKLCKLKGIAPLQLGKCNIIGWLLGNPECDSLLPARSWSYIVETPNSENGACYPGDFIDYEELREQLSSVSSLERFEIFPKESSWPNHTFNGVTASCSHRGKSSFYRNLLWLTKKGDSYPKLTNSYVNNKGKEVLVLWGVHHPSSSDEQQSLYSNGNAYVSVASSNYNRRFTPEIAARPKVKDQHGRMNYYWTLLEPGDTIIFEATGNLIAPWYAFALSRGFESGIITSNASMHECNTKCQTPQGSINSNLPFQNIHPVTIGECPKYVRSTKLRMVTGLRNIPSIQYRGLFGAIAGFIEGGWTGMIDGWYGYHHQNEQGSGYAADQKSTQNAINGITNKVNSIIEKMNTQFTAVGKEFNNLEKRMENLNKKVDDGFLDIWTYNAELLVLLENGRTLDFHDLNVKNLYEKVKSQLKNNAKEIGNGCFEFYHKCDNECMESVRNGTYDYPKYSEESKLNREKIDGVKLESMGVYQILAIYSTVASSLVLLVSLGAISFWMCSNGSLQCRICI

SMILES: NCCCC[C@H](NC(=O)OCC1c2ccccc2-c2ccccc21)C(=O)N[C@@H](CCCCN)C(=O)N[C@@H](Cc1c[nH]c2ccccc12)C(=O)N[C@@H](CCCCN)C(=O)NCCCC[C@H](NC(=O)[C@H](CCCCN)NC(=O)[C@H](Cc1c[nH]c2ccccc12)NC(=O)[C@H](CCCCN)NC(=O)[C@H](CCCCN)NC(=O)OCC1c2ccccc2-c2ccccc21)C(=O)NCCCC[C@H](NC(=O)[C@H](CCCCNC(=O)[C@H](CCCCN)NC(=O)[C@H](Cc1c[nH]c2ccccc12)NC(=O)[C@H](CCCCN)NC(=O)[C@H](CCCCN)NC(=O)OCC1c2ccccc2-c2ccccc21)NC(=O)[C@H](CCCCN)NC(=O)[C@H](Cc1c[nH]c2ccccc12)NC(=O)[C@H](CCCCN)NC(=O)[C@H](CCCCN)NC(=O)OCC1c2ccccc2-c2ccccc21)C(=O)NCC(=O)O (I: Fmoc-KKWKK([Lys-Trp-Lys-Lys-Fmoc])KG-OH / II: Fmoc-KKWKK([Lys-Trp-Lys-Lys-Fmoc]); amide I:6-II:C)
- survival at 5 mg/kg (Mus musculus [1]): 20%
- AUC [2]: 11900 ng·h/mL
- IC50 (Influenza A virus [3]): 280 nM
- IC50 (Influenza A virus [4]): 310 nM
- IC50 (Influenza A virus [5]): 11600 nM
- CC50 at 1 h [6]: 41900 nM
- selectivity ratio [7]: 150
- Activity (Influenza A virus [8]): Active
- IC50 (Influenza A virus [9]): 240 nM
- IC50 (Influenza A virus [10]): 120 nM
- IC50 (Influenza B virus): 320 nM
- IC50 (Influenza A virus [11]): 320 nM
- Activity (Influenza A virus [12]): Active
- Activity (Influenza A virus [13]): Active
- Activity (Influenza A virus [14]): Active
- Activity (RAW264.7 [15]): Non-Toxic
- Activity (RAW264.7 [16]): Active
- Activity (RAW264.7 [17]): Active
- Activity (RAW264.7 [18]): 250.5 pg/mL
- Activity (RAW264.7 [19]): 280.5 pg/mL
- Activity (RAW264.7 [20]): Active
- Tmax [21]: 1.03 h
- half-life [22]: 2.88 h
- Activity (Mus musculus [23]): 129.4%
- survival at 5 mg/kg (Mus musculus [24]): 33%
- survival at 1.25 mg/kg (Mus musculus [25]): 20%
- Activity (Mus musculus [26]): 25.84 g
- Activity (Mus musculus [27]): Active
- Activity (Mus musculus [28]): Active
- Activity (Erythrocyte): Toxic
- Activity (Influenza A virus [29]): Active
- Activity (Influenza A virus [30]): 63%
- Kd (Hemagglutinin): 0.00665 nM
